Data reported in publication PMC6017461, “Multi-Target Anti-Alzheimer Activities of Four Prenylated Compounds from Psoralea Fructus” (Molecules : A Journal of Synthetic Chemistry and Natural …, 2018).

Biological target: T1, amyloid β-peptide 42 (Aβ42) (Homo sapiens, UniProt P05067)
T1 construct: gene APP; synthetic human Aβ42
Assay: Thioflavin T fluorescence aggregation assay with synthetic Aβ[…], positive control
Type: biochemical

T1 sequence (P05067 672-713 limits assumed): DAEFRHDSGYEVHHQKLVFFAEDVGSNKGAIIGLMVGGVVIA

With `COc1cc(/C=C/C(=O)CC(=O)/C=C/c2ccc(O)c(OC)c2)ccc1O` [curcumin] the “Thioflavin T fluorescence aggregation assay with synthetic Aβ42, positive contro” value was “which were comparable to the positive control curcumin”.
